# Patent US20140371258A1 (priority 2010, published 2014)
# “Also recorded” adds a separate entry of the source. Like-named read-outs stand apart in the source and are kept apart here.
# Experiments:
# [1] = humans, cited from earlier work
# [2] = Maximum tolerated dose (tolerance) study, Q4D×3 iv; format: in vivo, female athymic NCr-nu/nu mice
# [3] = tested on: human NCI-H460 lung tumor; assay: NCI-H460 lung tumor xenograft efficacy study; format: in vivo
# Source text: The purpose of the study was to evaluate the antitumor efficacy of exemplary PEG topotecan conjugates along with unmodified topotecan when administered against subcutaneously (sc) implanted human NCI-H460 lung tumor xenografts in male athymic nude mice.
# Six-weeks-old male athymic nude mice were purchased from Charles River (Wilmington, Mass.) and acclimated in the laboratories prior to experimentation. […] Cages were changed twice weekly.
# Thirty-to-forty mg fragments of human NCI-H460 lung tumor were implanted sc in mice near the right axillary area using a 12-gauge trocar needle and allowed to grow.
# On each day of injection, a 15.625 mg/mL solution of PEG-topotecan (the amount of PEG-topotecan being 31.25 times the topotecan dosage) was prepared in saline. A portion of this solution was diluted with saline to the lower concentrations. All three solutions were quite viscous. A 0.5 mg/mL solution of topotecan was prepared in saline on each day of treatment. Lower dosages were achieved by diluting this solution with saline. All dosing solutions were administered by exact body weight using an injection volume of 0.2 mL/10 g of body weight. Both PEG-topotecan and topotecan solutions were prepared in subdued light with PEG-topotecan injected within two hours of preparation and topotecan injected within 30 minutes of preparation.
# The experiment consisted of six treatment groups of ten mice per group and one vehicle-treated control group also with ten mice for a total of 70 mice on the first day of treatment. Both PEG-topotecan and topotecan were administered intravenously (iv) as three injections given four days apart (q4d×3) at dosages of 10, 2.5, and 1 mg/kg/dose. The control group (group 1) was treated with the vehicle (saline), which was also administered iv q4d×3.
# The study was terminated 55 days after tumor implantation. Any animal whose tumor became ulcerated or reached 4,000 mg was euthanized prior to study termination.
# [4] = Single-dose MTD study; set-up: species or system mice; conditions: mouse, in vivo, intravenous, topotecan-equivalent
# [5] = tested on: human NCI-H460 lung tumor; assay: H460 tumor growth after a single IV administration; format: in vivo; conditions: single iv injection at each compound's MTD; FIG. 7
# Experimental: Six-weeks-old female athymic nude mice were purchased from Charles River (Wilmington, Mass.) and acclimated in the laboratories prior to experimentation. […] The animals were observed daily and clinical signs were noted.
# Thirty-to-forty mg fragments of human NCI-H460 lung tumor were implanted sc in mice near the right axillary area using a 12-gauge trocar needle and allowed to grow. The day of tumor implantation was designated as day −7. Tumors were allowed to reach 100-234 mg in weight (100-234 mm^3 in size) before the start of treatment. A sufficient number of mice were implanted so that tumors in a weight range as narrow as possible were selected for the trial on the day of treatment initiation (day 7 after tumor implantation). […]
# The experiment consisted of 3 treatment groups of 36 mice per group plus an untreated group of 3 mice for a total of 39 mice on the day of treatment. […] The above ‘topotecan-equivalent’ concentrations were calculated based on the topotecan content for each compound. […]
# The sc tumors were measured and the animals were weighed twice weekly starting with the first day of treatment. Tumor volume was determined by caliper measurements (mm) and using the formula for an ellipsoid sphere: L×W^2/2=mm^3, where L and W refer to the larger and smaller perpendicular dimensions collected at each measurement. […]
# [6] = mouse, in vivo, iv
# Experimental: (§1) The experiment consisted of 3 treatment groups of 36 mice per group plus an untreated group of 3 mice for a total of 39 mice on the day of treatment. […] The above ‘topotecan-equivalent’ concentrations were calculated based on the topotecan content for each compound. […] At intervals (0.5, 1, 2, 4, 8, 12, 24, 72, 120, 168, 216 hr) following drug administration, 3 animals per treatment group were sacrificed, blood collected via cardiac puncture, and tumor tissue was excised. Tumor tissue was flash frozen and stored at −80° C. until analysis. Blood was processed to obtain plasma and stabilizers added as described for PK studies in beagle dogs. Samples were frozen and stored at −80° C. until analysis.
# (§2) Plasma and tumor-tissue were analyzed by LC/MS-MS for topotecan. Data was reported as ng/mL for plasma samples and ng/mg for tumor samples.
# [7] = in vivo; conditions: mouse, iv
# Experimental: as §1, §2
# [8] = tested on: HT29 human colon tumor; assay: HT29 colorectal cancer xenograft efficacy study; conditions: for Non-Specific Deaths / Regressions (100%) / Tumor Free on Day 99: 10 animals per group; for Growth Delay (T-C): based on median days to 1000 mg
# Source text: Six-weeks-old female athymic NCr-nu/nu mice were purchased from Charles River Laboratories, Inc. (Wilmington, Mass.) and acclimated in the laboratories for nine days prior to experimentation. The mice were housed in microisolator cages, up to five animals per cage. Each animal in the cage was identified by an ear punch. All mice were on a 12-hour light/dark cycle and received filtered municipal water and sterilizable rodent diet (Harlan-Teklad TD8656) ad libitum. Cages were changed twice weekly. The animals were observed daily and clinical signs were noted.
# Thirty-to-forty mg fragments of HT29 human colon tumor, propagated in an in vivo passage, were implanted sc on the right flank area of mice using a12-gauge trocar needle. The day of tumor implantation was designated as Day 0. […] A sufficient number of mice were implanted so that animals with tumors in a weight range as narrow as possible were selected for the trial on the day of treatment initiation (Day 14 after tumor implantation). Those animals selected with tumors in the proper size range on Day 14 were placed in several large cages and then assigned randomly to the various treatment groups.
# The lower dosage was achieved by further dilution with saline. The dosing solutions were treated as light-sensitive (formulated under amber lights and dispensed into brown bottles), stored at room temperature, and administered within 2 h of formulation. […] The lower dosage was achieved by further dilution with saline. The dosing solutions were treated as light-sensitive (formulated under amber lights and dispensed into brown bottles), were stored at room temperature, and were administered within 2 h of formulation. Topotecan was prepared at a concentration of 1.0 mg/mL on each day of treatment in saline. The lower dosages were achieved by further dilutions with saline. The dosing solutions were treated as light-sensitive (formulated under amber lights and dispensed into brown bottles), were kept on ice, and were administered within 30 min of formulation. Saline was obtained from Phoenix Pharmaceutical, Inc.
# The study consisted of a vehicle-treated control group and seven treatment groups with ten mice each for a total of 80 mice at the start of treatment. […] The control group was treated intravenously with saline on the same treatment schedule. All treatments were administered by exact body weight with the injection volume being 0.2 mL/10 g of body weight.
# Tumors were measured (the limit of detection being 32 mg (4×4 mm)) and the animals were weighed twice weekly starting with the first day of treatment. Tumor volume was determined by caliper measurements (mm) and using the formula for an ellipsoid sphere: L×W^2/2=mm^3, where L and W refer to the larger and smaller perpendicular dimensions collected at each measurement. This formula is also used to calculate tumor weight, assuming unit density (1 mm^3=1 mg). Individual tumor and body weight measurements were collected.
# Number of non-specific deaths, number of complete tumor regressions, number of tumor-free survivors on Day 99, and median number of days for the tumors in each group to reach 1,000 mg were calculated. The median time (in days) to reach 1,000 mg was used in the calculation of the overall delay in the growth of the median tumor (T-C; T=treated group; C=control group). Individual tumor weights, group median tumor weights, TIC (%) based on median tumor weights, group mean tumor weights, standard error of the mean tumor weights, the time for the individual animal's tumor to reach 1,000 mg, individual body weights, mean body weights, and the change in mean body weights relative to the mean body weight on the first day of collection (in grams and as a percent) were collected.
compound,measurement,setting,value
camptothecin sodium,biological half life t1/2,[1]; bolus iv,15.3 hours
"CC[C@@]1(O)C(=O)OCc2c1cc1n(c2=O)Cc2cc3c(CN(C)C)c(O)ccc3nc2-1 [topotecan, (S)-10-[(dimethylamino)methyl]-4-ethyl-4,9-dihydroxy-1H-pyrano[3′,4′:6,7]indolizino[1,2-b]quinoline-3,14(4H,12H)-dione]",maximum average body weight loss,"[2]; iv Q4D×3, 5 mg/kg/inj",0%
same,maximum average body weight loss,"[2]; iv Q4D×3, 10 mg/kg/inj",0%
same,maximum tolerated dosage (MTD),"[2]; iv Q4D×3, not more than 10% deaths, no more than 20% average body weight loss",15 mg/kg/inj
same,deaths,"[2]; non-tumor-bearing mice, iv Q4D×3, dosages of 15, 10, and 5 mg/kg/inj",no deaths; also recorded: without deaths
same,growth delay compared with PEG-topotecan at the same dosage,[3]; 1.0 mg/kg/dose,significantly greater
same,deaths,[3]; 1.0 mg/kg/dose iv q4d×3,without deaths
same,deaths,[3]; 2.5 mg/kg/dose iv q4d×3,without deaths
same,deaths,[3]; 10 mg/kg/dose iv q4d×3,one
same,MTD,[4],20 mg/kg
same,tumor growth inhibition / delay,[5],only minimal tumor growth delay; also recorded: delayed modestly
same,detectability of topotecan in plasma,[6],undetectable beyond 24 hr post-injection
same,concentration at 5 day,[7],< 1000 ng/g
same,biological half life t1/2,[1]; 30 min iv,2.8 hours
same,Median Days to 1000 mg,[8]; 7.5 mg/kg/inj iv Q4Dx3(14),38.5 days
same,Non-Specific Deaths,[8]; 7.5 mg/kg/inj iv Q4Dx3(14),0
same,Regressions (100%),[8]; 7.5 mg/kg/inj iv Q4Dx3(14),0
same,Tumor Free on Day 99,[8]; 7.5 mg/kg/inj iv Q4Dx3(14),0
same,Growth Delay (T-C),[8]; 7.5 mg/kg/inj iv Q4Dx3(14),4.4 days
same,Median Days to 1000 mg,[8]; 15 mg/kg/inj iv Q4Dx3(14),46.8 days
same,Non-Specific Deaths,[8]; 15 mg/kg/inj iv Q4Dx3(14),two
same,Regressions (100%),[8]; 15 mg/kg/inj iv Q4Dx3(14),0
same,Tumor Free on Day 99,[8]; 15 mg/kg/inj iv Q4Dx3(14),0
same,Non-Specific Deaths,"[8]; 15 mg/kg/inj iv Q4Dx3(14), listed as Top",2
same,Growth Delay (T-C),[8]; 15 mg/kg/inj iv Q4Dx3(14),12.7 days
same,Median Days to 1000 mg,[8]; 20 mg/kg/inj iv Q4Dx3(14),49.9 days
same,Non-Specific Deaths,[8]; 20 mg/kg/inj iv Q4Dx3(14),two
same,Regressions (100%),[8]; 20 mg/kg/inj iv Q4Dx3(14),0
same,Tumor Free on Day 99,[8]; 20 mg/kg/inj iv Q4Dx3(14),0
same,Non-Specific Deaths,"[8]; 20 mg/kg/inj iv Q4Dx3(14), listed as Top",2
same,Growth Delay (T-C),[8]; 20 mg/kg/inj iv Q4Dx3(14),15.8 days
same,inhibition of growth of HT29 human colon tumor xenografts,[8]; dosage of 7.5 mg/kg/inj iv Q4D×3,minimally effective
same,inhibition of growth of HT29 human colon tumor xenografts,[8]; dosages of 20 and 15 mg/kg/inj iv Q4D×3,effective
